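Method: 48-hour compound exposure of cells in 96-well plates, five concentrations, linear interpolation of endpoints. GI50: concentration for 50% inhibition of growth.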 Activity calls are given as the source filed them. No stated cut-off is given here; in the data, active = GI50 up to about 1.1 µM and inactive = higher.
Legend:
Experiment in all cases: DTP human tumour cell line panel, 48 h
MDA-N = test system: MDA-N
MDA-MB-435 = test system: MDA-MB-435
A498 = test system: A498
NCI-H460 = test system: NCI-H460
LOX IMVI = test system: LOX IMVI
UO-31 = test system: UO-31
HCC 2998 = test system: HCC 2998
NCI-H23 = test system: NCI-H23
UACC-62 = test system: UACC-62
OVCAR-4 = test system: OVCAR-4
SK-MEL-28 = test system: SK-MEL-28
UACC-257 = test system: UACC-257
SNB-75 = test system: SNB-75
HL-60 = test system: HL-60
NCI-H226 = test system: NCI-H226
HCT-15 = test system: HCT-15
NCI-H522 = test system: NCI-H522
SF-268 = test system: SF-268
DU-145 = test system: DU-145
SW-620 = test system: SW-620
T47D = test system: T47D
CCRF-CEM = test system: CCRF-CEM
SK-MEL-5 = test system: SK-MEL-5
SK-MEL-2 = test system: SK-MEL-2
MOLT-4 = test system: MOLT-4
HOP-92 = test system: HOP-92
KM12 = test system: KM12
RPMI-8226 = test system: RPMI-8226
IGROV-1 = test system: IGROV-1
OVCAR-5 = test system: OVCAR-5
Hs-578T = test system: Hs-578T
U-251 = test system: U-251
SF-539 = test system: SF-539
SK-OV-3 = test system: SK-OV-3
COLO 205 = test system: COLO 205
OVCAR-3 = test system: OVCAR-3
SNB-19 = test system: SNB-19
RXF 393 = test system: RXF 393
HCT-116 = test system: HCT-116
NCI/ADR-RES = test system: NCI/ADR-RES
Malme-3M = test system: Malme-3M
OVCAR-8 = test system: OVCAR-8
A549 = test system: A549
K562 = test system: K562
HT-29 = test system: HT-29
CAKI-1 = test system: CAKI-1
M14 = test system: M14
SN12C = test system: SN12C
SR = test system: SR
MCF7 = test system: MCF7
PC-3 = test system: PC-3
786-0 = test system: 786-0
SF-295 = test system: SF-295
ACHN = test system: ACHN
MDA-MB-231 = test system: MDA-MB-231
BT-549 = test system: BT-549
EKVX = test system: EKVX
HOP-62 = test system: HOP-62
TK-10 = test system: TK-10

CCCCC1C(=O)N(c2ccc(S(=O)(=O)Nc3ccccn3)cc2)N(c2ccc(O)c(C(=O)O)c2)C1=O (stereo not drawn) was tested. Which GI50 (MDA-N) did it give?
Its GI50 is > 100 µM (inactive).

And the GI50 (MDA-MB-435)?
The GI50 was > 100 µM (inactive).

And the GI50 (A498)?
The GI50 was > 100 µM (inactive).

And the GI50 (NCI-H460)?
The GI50 was > 100 µM (inactive).

What about the GI50 (LOX IMVI) of the same compound?
The GI50 was > 100 µM (inactive).

And the GI50 (UO-31)?
Its GI50 is > 100 µM (inactive).

What about the GI50 (HCC 2998) of the same compound?
Its GI50 is > 100 µM (inactive).

What about the GI50 (NCI-H23) of the same compound?
The GI50 was > 100 µM (inactive).

And the GI50 (UACC-62)?
The GI50 was > 100 µM (inactive).

What about the GI50 (OVCAR-4) of the same compound?
The GI50 was > 100 µM (inactive).

And the GI50 (SK-MEL-28)?
The GI50 was > 100 µM (inactive).

What about the GI50 (UACC-257) of the same compound?
The GI50 was > 100 µM (inactive).

And the GI50 (SNB-75)?
The GI50 was > 100 µM (inactive).

What about the GI50 (HL-60) of the same compound?
Its GI50 is > 100 µM (inactive).

And the GI50 (NCI-H226)?
Its GI50 is > 100 µM (inactive).

And the GI50 (HCT-15)?
Its GI50 is greater than 100 µM.

What about the GI50 (NCI-H522) of the same compound?
Its GI50 is > 100 µM (inactive).

What about the GI50 (SF-268) of the same compound?
The GI50 was > 100 µM (inactive).

What about the GI50 (DU-145) of the same compound?
Its GI50 is > 100 µM (inactive).

What about the GI50 (SW-620) of the same compound?
Its GI50 is > 100 µM (inactive).

And the GI50 (T47D)?
The GI50 was > 100 µM (inactive).

What about the GI50 (CCRF-CEM) of the same compound?
Its GI50 is > 100 µM (inactive).

What about the GI50 (SK-MEL-5) of the same compound?
The GI50 was > 100 µM (inactive).

And the GI50 (SK-MEL-2)?
Its GI50 is > 100 µM (inactive).

And the GI50 (MOLT-4)?
Its GI50 is > 100 µM (inactive).

And the GI50 (HOP-92)?
Its GI50 is > 100 µM (inactive).

What about the GI50 (KM12) of the same compound?
The GI50 was > 100 µM (inactive).

What about the GI50 (RPMI-8226) of the same compound?
Its GI50 is > 100 µM (inactive).

What about the GI50 (IGROV-1) of the same compound?
Its GI50 is > 100 µM (inactive).

And the GI50 (OVCAR-5)?
The GI50 was > 100 µM (inactive).

What about the GI50 (Hs-578T) of the same compound?
The GI50 was > 100 µM (inactive).

What about the GI50 (U-251) of the same compound?
Its GI50 is > 100 µM (inactive).

What about the GI50 (SF-539) of the same compound?
Its GI50 is > 100 µM (inactive).

And the GI50 (SK-OV-3)?
The GI50 was > 100 µM (inactive).

And the GI50 (COLO 205)?
Its GI50 is > 100 µM (inactive).

And the GI50 (OVCAR-3)?
Its GI50 is > 100 µM (inactive).

And the GI50 (SNB-19)?
Its GI50 is > 100 µM (inactive).

What about the GI50 (RXF 393) of the same compound?
Its GI50 is > 100 µM (inactive).

What about the GI50 (HCT-116) of the same compound?
Its GI50 is > 100 µM (inactive).

What about the GI50 (NCI/ADR-RES) of the same compound?
Its GI50 is > 100 µM (inactive).

What about the GI50 (Malme-3M) of the same compound?
Its GI50 is > 100 µM (inactive).

What about the GI50 (OVCAR-8) of the same compound?
The GI50 was > 100 µM (inactive).

What about the GI50 (A549) of the same compound?
The GI50 was > 100 µM (inactive).

And the GI50 (K562)?
The GI50 was > 100 µM (inactive).

What about the GI50 (HT-29) of the same compound?
Its GI50 is > 100 µM (inactive).

And the GI50 (CAKI-1)?
The GI50 was > 100 µM (inactive).

What about the GI50 (M14) of the same compound?
The GI50 was > 100 µM (inactive).

And the GI50 (SN12C)?
The GI50 was > 100 µM (inactive).

What about the GI50 (SR) of the same compound?
The GI50 was > 100 µM (inactive).

And the GI50 (MCF7)?
The GI50 was > 100 µM (inactive).

And the GI50 (PC-3)?
The GI50 was > 100 µM (inactive).

And the GI50 (786-0)?
The GI50 was > 100 µM (inactive).

And the GI50 (SF-295)?
Its GI50 is > 100 µM (inactive).

What about the GI50 (ACHN) of the same compound?
Its GI50 is > 100 µM (inactive).

And the GI50 (MDA-MB-231)?
Its GI50 is > 100 µM (inactive).

What about the GI50 (BT-549) of the same compound?
Its GI50 is > 100 µM (inactive).

And the GI50 (EKVX)?
The GI50 was > 100 µM (inactive).

Which results are given for CC(=O)OC/C=C\Cn1nc(Br)c(=O)[nH]c1=O?
GI50 (MDA-N): 15.6 µM (inactive); GI50 (MDA-MB-435): 14.6 µM (inactive); GI50 (A498): 19.9 µM (inactive); GI50 (NCI-H460): 13.2 µM (inactive); GI50 (LOX IMVI): 6.75 µM (inactive); GI50 (UO-31): 16.4 µM (inactive); GI50 (HCC 2998): 15.7 µM (inactive); GI50 (NCI-H23): 15.1 µM (inactive); GI50 (SK-MEL-28): 16.4 µM (inactive); GI50 (UACC-257): 15.5 µM (inactive); GI50 (SNB-75): 15.1 µM (inactive); GI50 (HL-60): 4.69 µM (inactive); GI50 (NCI-H226): 12.9 µM (inactive); GI50 (HCT-15): 13.1 µM; GI50 (NCI-H522): 2.81 µM (inactive); GI50 (SF-268): 14.9 µM (inactive); GI50 (DU-145): 15.7 µM (inactive); GI50 (SW-620): 14.3 µM (inactive); GI50 (T47D): 13.9 µM (inactive); GI50 (CCRF-CEM): 5.24 µM (inactive); GI50 (SK-MEL-5): 14.6 µM (inactive); GI50 (SK-MEL-2): 13.1 µM (inactive); GI50 (HOP-92): 13 µM (inactive); GI50 (KM12): 15.5 µM (inactive); GI50 (RPMI-8226): 25.9 µM (inactive); GI50 (IGROV-1): 15 µM (inactive); GI50 (OVCAR-5): 17.9 µM (inactive); GI50 (Hs-578T): 21.5 µM (inactive); GI50 (U-251): 10.5 µM (inactive); GI50 (SF-539): 11.2 µM (inactive); GI50 (COLO 205): 13.5 µM (inactive); GI50 (OVCAR-3): 9.75 µM (inactive); GI50 (SNB-19): 18.7 µM (inactive); GI50 (RXF 393): 10.6 µM (inactive); GI50 (NCI/ADR-RES): 17.3 µM (inactive); GI50 (Malme-3M): 14.3 µM (inactive); GI50 (OVCAR-8): 14.9 µM (inactive); GI50 (A549): 16.7 µM (inactive); GI50 (K562): 9.33 µM (inactive); GI50 (HOP-62): 16.3 µM (inactive); GI50 (CAKI-1): 10.7 µM (inactive); GI50 (M14): 14.9 µM (inactive); GI50 (SN12C): 23.2 µM (inactive); GI50 (SR): 4.06 µM (inactive); GI50 (MCF7): 11.5 µM (inactive); GI50 (PC-3): 13.2 µM (inactive); GI50 (ACHN): 7.87 µM (inactive); GI50 (TK-10): 19.1 µM (inactive); GI50 (MDA-MB-231): 18 µM (inactive); GI50 (BT-549): 9.77 µM (inactive); GI50 (EKVX): 17.4 µM (inactive)

Source: ChEMBL document CHEMBL1201862, “PubChem BioAssay data set” (2004)
